Laboratory results from US20210179680A1, “POLYPEPTIDE, DERIVATIVES THEREOF, AND APPLICATION THEREOF IN PREPARATION OF DRUGS HAVING RESISTANCE TO PULMONARY FIBROSIS” (priority 2016, published 2021).
Bridge positions count the residues as written; N and C are the ends. Square brackets hold non-standard residues; d marks the D form. Peptide text beside a SMILES is read from it. S5 = C=CCCC[C@](C)(N)C(=O)O

Legend:
[1] = test system: mice with bleomycin-induced pulmonary fibrosis; experiment: Lung weight index in mice with pulmonary fibrosis; assay type: in vivo, C57BL/6 mice; settings: Table 3 groups, 2 mg/kg i.p.; after 28 days; lung weight (mg) divided by body weight (g)
Procedure: (§1) Male C57BL/6 mice were fasted overnight, then anesthetized with 45 mg/kg sodium pentobarbital by injection intraperitoneally (i.p.), and intratracheally injected with bleomycin at a dose of 3 U/kg. The specific operation steps are as follows: cut the neck skin of the mouse with as little trauma as possible, expose the trachea with the assistance of elbow ophthalmic forceps, puncture the trachea and inject about 50 μL of bleomycin into the trachea with a microsyringe, rotate the mouse quickly and stand it upright for 5 minutes in order to make bleomycin evenly enter the left and right lobe, thereby constructing an animal model. The whole operation was performed at a surgical table at about […]. Mice in the sham operation group were intratracheally injected with an equal amount of physiological saline for injection.
Pulmonary fibrosis model was prepared according to the method described in Example 2, and administered in groups according to Table 3. After 28 days, the lungs of the mice were finely stripped and weighed, and a lung weight index was obtained from dividing the lung weight (mg) by the body weight (g) of the mice. […] In FIG. 7, “##” represents that P value is less than 0.01 when the lung weight index of administration group was compared with that of the sham operation group; “*” represents that P value is less than 0.05 when the lung weight index of administration group was compared with that of the bleomycin group; “**” represents that P value is less than 0.01 when the lung weight index of administration group was compared with that of bleomycin group.
Pulmonary fibrosis models were made according to the method described in Example 2 and administered in groups according to Table 9. After 28 days, the lungs of the mice were finely stripped and weighed, and the lung weight (mg) was divided by the body weight (g) of the mice to obtain a lung weight index. […] In FIG. 13, “##” represents that P value is less than 0.01 when the lung weight index of the administration groups were compared with that of the sham operation group; “*” represents that P value is less than 0.05 and “**” represents that P value is less than 0.01 when the lung weight index of the administration groups were compared with bleomycin group.

TRB3 protein = target: T1, TRB3 protein (Homo sapiens, UniProt Q96RU7); experiment: Surface plasmon resonance (Biacore T200) binding of polypeptides to TRB3 protein; settings: SPR, FIG. 4-1, 4-2 and Table 1
T1 construct: purchased RD
T1 sequence (Q96RU7 1-358): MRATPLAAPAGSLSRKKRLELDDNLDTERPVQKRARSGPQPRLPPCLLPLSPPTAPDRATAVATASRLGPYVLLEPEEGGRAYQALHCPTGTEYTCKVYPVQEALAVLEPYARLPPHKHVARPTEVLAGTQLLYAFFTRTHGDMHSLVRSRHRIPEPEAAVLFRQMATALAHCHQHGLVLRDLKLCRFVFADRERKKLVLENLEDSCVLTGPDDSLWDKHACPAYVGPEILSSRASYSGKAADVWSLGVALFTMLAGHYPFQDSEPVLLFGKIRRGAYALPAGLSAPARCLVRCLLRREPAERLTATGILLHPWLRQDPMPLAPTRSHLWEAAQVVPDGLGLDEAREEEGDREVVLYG
Procedure: The surface plasmon resonance experiment was carried out in a surface plasmon resonator Biacore T200, and the procedure was carried out in accordance with the instructions of the plasma resonator Biacore T200. Specific steps are as follows:
1. Purified TRB3 protein (purchased from RD) was coupled to a CMS chip (purchased from GE) by amidogen, and the unbound protein was eluted at a flow rate of 10 μL/min. The surface of the chip was equilibrated for 2 hours. Among them, the specific steps of amidogen coupling, elution and equilibration refer to the relevant instruction of GE's CMS chip.
2. 250 μL of the S1-S11 and MR2 polypeptide fragments prepared in Example 1 with different concentrations (800, 400, 200, 50, 12.5, 6.25, and 3.125 nM) were automatically injected, and the entire surface plasmon resonance experiment was carried out at 25° C. The buffer used was HBS-EP buffer [0.01 M HEPES, 0.15 M NaCl, 3 mM EDTA and 0.005% (w/w) surfactant TWEEN20]. Biacore T200's built-in analysis software was used to simulate the binding curves of different concentrations of peptides to TRB3.

[2] = test system: mice with bleomycin-induced pulmonary fibrosis; experiment: Survival rate of mice with bleomycin-induced pulmonary fibrosis; assay type: in vivo, C57BL/6 mice; settings: Table 3 groups: 2 mg/kg i.p., 10th to 28th day after modeling, twice a week
Procedure: as §1
The animal model with pulmonary fibrosis was prepared according to the method described in Example 2. The peptide therapy was started from the 10th day after modeling (the treatment groups are shown in Table 3), and the time was calculated from the 10th day after modeling to count the mortality rate. The death situation of each group of experimental animals was counted and calculated daily. […] The survival rate is the percentage of the number of mice that survived accounting for the number of mice in the whole group. Results are shown in FIG. 6-1, FIG. 6-2 and Table 4. […] In FIG. 6-1 and FIG. 6-2, “##” represents that P value is less than 0.01 when the survival rate of administration group was compared with that of the sham operation group; “*” represents that P value is less than 0.05 when the survival rate of administration group was compared with that of the bleomycin group; “**” represents that P value is less than 0.01 when the survival rate of administration group was compared with that of bleomycin group; and “i.p.” refers to intraperitoneal injection.
The animal model of pulmonary fibrosis was prepared according to the method described in Example 2. The polypeptide treatment was started from the 10th day after modeling (the treatment groups are shown in Table 9), and the time was calculated from the 10th day after modeling to count the mortality rate. The mortality rate of each group of experimental animals was recorded and calculated daily. If none of the animals in a group died, the survival rate of the group is 100%. If all the animals in a group died, the survival rate is 0%. […] In FIG. 12, “##” represents that P value is less than 0.01 when the survival rate of the administration groups were compared with that of the sham operation group; “*” represents that P value is less than 0.05 and “**” represents that P value is less than 0.01 when the survival rate of the administration groups were compared with bleomycin group.

Structure (SMILES)	Lung weight index [1]	interaction with the TRB3 protein (in words) (TRB3 protein)	Survival rate (%) 7 days [2]	Survival rate (%) 14 days [2]	Survival rate (%) 21 days [2]	Survival rate (%) 28 days [2]
CSCC[C@H](NC(=O)[C@H](CC(C)C)NC(=O)[C@@H](N)Cc1c[nH]cn1)C(=O)N[C@@H](C)C(=O)N[C@@H](CS)C(=O)N[C@@H](Cc1ccccc1)C(=O)N[C@H](C(=O)N[C@@H](CS)C(=O)N[C@@H](C)C(=O)N[C@@]1(C)CCCC=CCCC[C@@](C)(C(=O)N[C@@H](CCCNC(=N)N)C(=O)O)NC(=O)[C@H](CCCCN)NC(=O)[C@H](CC(C)C)NC(=O)[C@H](CCCCN)NC1=O)[C@@H](C)O [S10, His-Leu-Met-Ala-Cys-Phe-Thr-Cys-Ala-S5-Lys-Leu-Lys-S5-Arg] (H-HLMACFTCA[S5]KLK[S5]R-OH; staple 10-14; N-terminus and C-terminus assumed)	8.8875	interacted with the TRB3 protein	100%	93.33%	80%	80%
CSCC[C@H](NC(=O)[C@H](CC(C)C)NC(=O)[C@@H](N)Cc1c[nH]cn1)C(=O)N[C@@H](C)C(=O)N[C@@H](CS)C(=O)N[C@@H](Cc1ccccc1)C(=O)N[C@H](C(=O)N[C@@H](CS)C(=O)N[C@@H](C)C(=O)N[C@@H](CCCCN)C(=O)N[C@@]1(C)CCCC=CCCC[C@@](C)(C(=O)O)NC(=O)[C@H](CCCCN)NC(=O)[C@H](CCCCN)NC(=O)[C@H](CC(C)C)NC1=O)[C@@H](C)O [S11, His-Leu-Met-Ala-Cys-Phe-Thr-Cys-Ala-Lys-S5-Leu-Lys-Lys-S5] (H-HLMACFTCAK[S5]LKK[S5]-OH; staple 11-15; N-terminus and C-terminus assumed)	9.2875	interacted with the TRB3 protein	100%	93.33%	86.67%	86.67%
